Test results taken from US20110009368A1, “SOLID FORMS OF TENOFOVIR DISOPROXIL” (ULTIMORPHIX TECHNOLOGIES B.V., priority 2007, published 2011).
“Also recorded” adds a separate entry of the source. Where a name gives a salt, the structure may show the parent alone.

What was measured:
[1] = Intrinsic dissolution rate measurement (micro-dissolution, UV); assay type: physicochemical; details: 20 ml, 100 rpm
[2] = Dynamic Vapour Sorption (DVS) moisture sorption; assay type: physicochemical; details: for total uptake of water vapours (max water adsorption, hygroscopicity): relative humidity 0% to 95% in steps of 5%, 1 h per step
Method: Moisture sorption isotherms were measured using a DVS-1 system of Surface Measurement Systems (London, UK). Differences in moisture uptake of a solid material indicate differences in the relative stabilities of the various solid forms for increasing relative humidity. The experiment was carried out at a constant temperature of 25° C.
A sample of about 15 mg of TDSU ULT-1 was spread in the DVS pan. The sample was dried at 0% RH for 7 h. Subsequently the relative humidity of the chamber was increased in steps of 5% units from 0% to 95% in order to monitor the sorption of water vapours. The samples remained in each of the steps for 1 h. Following, desorption was monitored by decreasing the relative humidity to 0% in steps of 5% units and remaining at each step for 1 h. The graph of sorption-desorption cycle is shown below. […] In a similar DVS experiment using the starting material as purchased, the total vapour intake was about 4%, which is undesirable in formulation and requires additional measures.

[3] = known crystalline form; compared with industry limits; cited from earlier work
[4] = Intrinsic dissolution rate measurement (micro-dissolution, UV); assay type: physicochemical; details: for Dissolution rate: 20 ml, 100 rpm
Method: 20 ml of high pure water was placed in 25 ml vial in the micro-dissolution thermal block by using a 20 ml volumetric pipette. A large cross stirrer was placed to the vial and the solution was stirred at a speed of 100 rpm. The 5 mm path length tip was placed from the top along with the probe connected with DAD (Diode Array Detector) analyzer. The 100% transmittance and dark spectra was collected by using high pure water. In the next step a tablet of 10 mg of Tenofovir disoproxil succinate (TDSU ULT-1) was pressed on tablet machine and placed along with the stirrer in a 25 ml vial in the micro-dissolution thermal block. The probe was placed along with the 5 mm path length tip and 20 ml of high pure water was added to the sample. The solution was stirred with a speed of 100 rpm and absorbance or the optical density was determined with respect to time by UV spectrometer. The intrinsic dissolution rate was determined by plotting concentration versus time and calculating the slope of the curve.
The same experiments were performed in a similar manner in buffered media of pH values of […]. pH buffers for dissolution pH 1.5: USP SGF without pepsin (0.05M sodium chloride adjusted to pH 1.5 with HCl) pH 3.0: 0.05 sodium di-hydrogen phosphate buffer adjusted to […] with NaOH pH 4.5: 0.05M sodium di-hydrogen phosphate buffer adjusted to pH 4.5 with NaOH pH 6.8: USP SIF without pancreatin (0.05M sodium di-hydrogen phosphate buffer adjusted to pH 6.8 with NaOH) pH 7.4: 0.05M sodium di-hydrogen phosphate adjusted to pH 7.4 with NaOH Results of intrinsic dissolution rate measurements

[5] = Stress testing in climatic chamber, physical and chemical stability by XRPD and HPLC; assay type: physicochemical; details: 40° C. and 75% relative humidity
Method: A small quantity (of about 10 milligrams) of TDSU ULT-1 was placed in a Binder climatic chamber KBR115 series for stress testing under 40° C. and 75% relative humidity (RH). The material was checked for physical and chemical stability by XRPD and HPLC respectively in intervals of 2 and 4 weeks. In both cases the material was stable, i.e. no structural change or chemical degradation took place over the tested period.

| Compound | Dissolution rate ([1]; Buffer pH 3.0, 10 mg tablet) | Dissolution rate ([1]; Buffer pH 6.8, 10 mg tablet) | total uptake of water vapours (max water adsorption, hygroscopicity) ([2]; DVS, 25° C.) | Hygroscopicity [3] | Dissolution rate ([4]; Buffer pH 1.5, 10 mg tablet) | Dissolution rate ([4]; Buffer pH 4.5, 10 mg tablet) | Dissolution rate ([4]; water, 10 mg tablet) | Dissolution rate ([1]; Buffer pH 7.4, 10 mg tablet) | hygroscopicity (conclusion from DVS data) ([2]; DVS, 25° C., 0% to 95% RH) | structure by XRPD at the end of the DVS experiment ([2]; after sorption-desorption cycle) | dissolving faster compared to TDF 1:1 ([4]; in water and in all media with pH values ranging from 1.5 to 7.4) | physical and chemical stability (XRPD and HPLC) ([5]; 2 weeks) | physical and chemical stability (XRPD and HPLC) ([5]; 4 weeks) |
| --- | --- | --- | --- | --- | --- | --- | --- | --- | --- | --- | --- | --- | --- |
| CC(C)OC(=O)OCOP(=O)(CO[C@H](C)Cn1cnc2c(N)ncnc21)OCOC(=O)OC(C)C [TDF 1:1, 9-[(R)-2-[[bis[[(isopropoxycarbonyl)oxy]methoxy]phosphinyl]methoxy]propyl]adenine fumarate (1:1), reference compound] | 1.36 mgmin−1 cm−2 | 0.98 mgmin−1 cm−2 | about 4% | > 4% | 3.29 mgmin−1 cm−2 | 0.99 mgmin−1 cm−2 | 1.12 mgmin−1 cm−2 |  |  |  |  |  |  |
| Tenofovir Disoproxil succinate [TDSU ULT-1] | 1.78 mgmin−1 cm−2 | 1.88 mgmin−1 cm−2 | about 0.3% |  | 10.00 mgmin−1 cm−2 | 3.55 mgmin−1 cm−2 | 1.42 mgmin−1 cm−2 | 1.09 mgmin−1 cm−2 | no hygroscopicity; also recorded: not hygroscopic | no any changes in the structure | up to 3 times | stable | stable |
